Our source for the Miscibility values is US6835386B2, “Collar containing a novel gel formulation to control arthropod infestation of animals” (Pfizer Inc., priority 1998, dated 2004).

The nature of the data set: Miscibility of insecticide in gel formulation. The format is physicochemical. The text has this:
Thus, the improved gel formulation allows permeation of an effective amount of the active ingredient to occur in about 3 days, as compared to about 3 to 5 weeks for prior formulations. As a result of this shortened initial permeation period, the device is ready for use more quickly after manufacture, thereby reducing or eliminating the amount of time that such devices must be stored prior to use. Additional advantages of the device of the present invention include eliminating several of the problems associated with the use of a mineral oil-based gel, such as leaving an oily residue on the animal, the potential for triggering skin irritations, and inhibiting the process of sealing the reservoir. In addition, insecticides such as cypermethrin which are not miscible in mineral oil-based gels are miscible in the improved gel formulation of the present invention.

As to `CC1(C)C(C=C(Cl)Cl)C1C(=O)OC(C#N)c1cccc(Oc2ccccc2)c1` (centres unmarked) [cypermethrin], the Miscibility result is recorded as “not miscible” (in mineral oil-based gels) and “miscible” (in the improved gel formulation of the present invention).
